Measurements taken from ChEMBL document CHEMBL1142701, “CHMIS-C: a comprehensive herbal medicine information system for cancer” (2005).

The molecules below were run on Panel NCI-60 (60 carcinoma cell lines) (assay: Growth inhibitory activity against human cancer cell line in the NCI's anticancer drug screening program).
Assay type: functional
`COc1cccc2c1cc([N+](=O)[O-])c1c(C(=O)O)cc3c(c12)OCO3` [ARISTOLOCHIC ACID] gave a GI50 of 883 nM.
Work on `CO[C@H]1C[C@H](O[C@H]2CC[C@]3(C=O)[C@H]4CC[C@]5(C)[C@@H](C6=CC(=O)OC6)CC[C@]5(O)[C@@H]4CC[C@]3(O)C2)O[C@H](C)[C@H]1O` [CYMARIN] yielded a GI50 of 39 nM.
`C[C@H]1[C@H](C)CC[C@]2(C(=O)O)CC[C@]3(C)C(=CCC4[C@@]5(C)CC[C@H](O)C(C)(C)C5CC[C@]43C)[C@H]12` (stereo not given in full) was tested, and the GI50 was 10 nM.
`CC(C)(O)/C=C/C(=O)[C@](C)(O)[C@@H]1C2CC(=O)[C@@]3(C)[C@@H]4C[C@H](O)C(=O)C(C)(C)C4=CC[C@H]3[C@]2(C)C[C@H]1O` (stereo not given in full) [ELATERICIN] was tested, and the GI50 was 23 nM.
`COc1cc2c[n+](C)c3c4cc5c(cc4ccc3c2cc1OC)OCO5` [NITIDINE CHLORIDE] gave a GI50 of 125 nM.
With `CC(C)c1oc(=O)cc2c1C(O)C1OC(=O)C3(C)C(O)C4OC4C2(C)C13` (stereo not given) [NAGILACTONE] the GI50 was 363 nM.
`COc1ccc2c(c[n+](C)c3c4cc5c(cc4ccc23)OCO5)c1OC` [CHELERYTHRINE CHLORIDE] showed a GI50 of 188 nM.
With `COc1cc([C@@H]2c3cc4c(cc3[C@H](O)[C@H]3COC(=O)[C@H]23)OCO4)cc(OC)c1OC` [PODOFILOX] the GI50 was 10 nM.
`CN1Cc2c(ccc3c2OCO3)C2C(O)Cc3cc4c(cc3C21)OCO4` (stereo not drawn) [CHELIDONINE (+)] was tested, and the GI50 was 433 nM.
Molecule `COc1c2cc3c(c1OC)CCN(C)[C@@H]3Cc1ccc(cc1)Oc1cc3c(c(OC)c1OC)CCN(C)[C@@H]3Cc1ccc(cc1)O2` [CYCLEANINE] has a GI50 of 17 nM.
For `c1c2c(cc3c1OCO3)-c1cc3ccc4c(c3c[n+]1CC2)OCO4` [COPTISINE], the GI50 was 260 nM.
`COc1ccc2cc1Oc1ccc(cc1)C[C@@H]1c3cc(c(OC)cc3CCN1C)Oc1c(OC)c(OC)cc3c1[C@H](C2)N(C)CC3` [ISOTETRANDRINE] showed a GI50 of 10 nM.
`O=C1N[C@@H]2C(=C[C@H](O)[C@@H](O)[C@H]2O)c2cc3c(c(O)c21)OCO3` [NARCICLASINE] showed a GI50 of 45 nM.
`C[C@]12CC[C@H]3[C@@H](CC[C@@]4(O)C[C@@H](O)CC[C@]34C=O)[C@]1(O)CC[C@@H]2C1=CC(=O)OC1` showed a GI50 of 94 nM.
Work on `COC(=O)C[C@](O)(CCCC(C)(C)O)C(=O)O[C@@H]1C(OC)=C[C@]23CCCN2CCc2cc4c(cc2[C@H]13)OCO4` [OMACETAXINE MEPESUCCINATE] yielded a GI50 of 4.4 nM.
For `Cc1cc(O)c2c(c1)C(=O)c1cc(O)cc(O)c1C2=O` [EMODIN], the GI50 was 10000 nM.
With `CC(C=CC=C(C)/C=C/C1=C(C)CCCC1(C)C)=CCO` [RETINOL] the GI50 was 28 nM.
Work on `O=c1oc2c(O)c(O)cc3c(=O)oc4c(O)c(O)cc1c4c23` [ELLAGIC ACID] yielded a GI50 of 10 nM.
Work on `C=C(CC[C@@H](C(=O)O)[C@H]1CC[C@@]2(C)C3=C(CC[C@]12C)[C@@]1(C)CC[C@H](O)C(C)(C)[C@@H]1CC3)C(C)C` [EBURICOIC ACID] yielded a GI50 of 10000 nM.
With `C=C1C(=O)[C@]23[C@H](O)[C@H]1CC[C@H]2[C@@]12CO[C@]3(O)[C@@H](O)[C@@H]1C(C)(C)CC[C@@H]2O` [ORIDONIN] the GI50 was 453 nM.
For `CC(=O)OC(C)(C)/C=C/C(=O)C(C)(O)C1C(O)CC2(C)C3CC=C4C(C[C@@H](O)C(=O)C4(C)C)C3(C)C(=O)CC12C` (stereo not given in full) [AMARIN], the GI50 was 10 nM.
With `COc1ccc2c(c1O)-c1c(OC)c(OC)cc3c1C(C2)[N+](C)(C)CC3` (stereo not given) [MENISPERINE] the GI50 was 41 nM.
In the case of `COC(=O)C(O)C(O)(CCC(C)C)C(=O)OC1C(OC)=CC23CCCN2CCc2cc4c(cc2C13)OCO4` (stereo not given) [OHARRINGTONINE], the GI50 is reported as 10 nM.
`COc1cc2c(c(OC)c1OC)-c1ccc(OC)c(=O)cc1[C@@H](NC(C)=O)CC2` [COLCHICINE] was tested, and the GI50 was 1.7 nM.
Work on `CC[C@@]1(O)C(=O)OCc2c1cc1n(c2=O)Cc2cc3ccccc3nc2-1` [CAMPTOTHECIN] yielded a GI50 of 10 nM.
Work on `COc1ccc2cc1Oc1ccc(cc1)C[C@H]1c3cc(c(OC)cc3CCN1C)Oc1c(OC)c(OC)cc3c1[C@H](C2)N(C)CC3` [FANCHININ] yielded a GI50 of 10 nM.
Molecule `CCCCCCCC/C=C\CCCCCCCC(=O)O` [OLEIC ACID] has a GI50 of 10000 nM.
`COC(=O)CC(O)(CCC(C)(C)O)C(=O)OC1C(OC)=CC23CCCN2CCc2cc4c(cc2C13)OCO4` (stereo not given) was tested, and the GI50 was 10 nM.
Work on `O=c1cc(-c2ccc(O)cc2)oc2cc(O[C@@H]3O[C@H](CO)[C@@H](O)[C@H](O)[C@H]3O)cc(O)c12` [APIGETRIN] yielded a GI50 of 76 nM.
Work on `CC(=O)O[C@H]1C(=O)[C@@]2(C)[C@H]([C@H](OC(=O)c3ccccc3)[C@]3(O)C[C@H](OC(=O)[C@H](O)[C@@H](NC(=O)c4ccccc4)c4ccccc4)C(C)=C1C3(C)C)[C@]1(OC(C)=O)CO[C@@H]1C[C@@H]2O` [PACLITAXEL] yielded a GI50 of 0.1 nM.
